Data set [1] is described as follows: in vitro. Format: cell-based, human. The note with it: human. The procedure: (§1) Before use in cell-based assays of integrin function, the effect of compounds on cell proliferation was tested using the MTT assay to avoid adhesion results being confounded by cell death (Supplementary Table S1). The effect of compounds on cell adhesion was then initially tested at a single, nontoxic concentration to identify active antagonists for further characterisation; those displaying a promising activity in the adhesion assay were tested at a wider range of concentrations to determine the IC50 (Table 2). […] Nevertheless, it is a cost-effective initial screening method. page 4: Table S1. Cytotoxicity of compounds on the cell lines used in the functional assays (measured by MTT assay). Cells (2000 cells/well for Sk-Mel-2; 1 x 10^4 cells/mL for M14) were incubated for 96 hours at 37 ° C in a total volume of 200 μL/well (180 μL medium + 20 μ L test compound solution). After 96 hours, the medium was replaced by fresh medium containing 0.5 mg/ml (end conc.) MTT per well, incubated for 4 h then the plate processed and read as described in the main text. […] ICT9053 41 naphthyridine 1 NHSO2Mes H Ester 52.6 ± 0.6 72.7 ± 9.8 ICT9065 42 naphthyridine 1 H H Ester >100 - ICT9079 43 naphthyridine 0 NHSO2Mes H Ester ~100 - ICT9061 44 naphthyridineT 1 NHSO2Mes H Ester 46.8 ± 10.7 - […] Ester 65.4 ± 11.1 >100 […] Ester 9.6 ± 5.7 >100 […] Ester >100 - […] Ester 54.6 ± 11.0 - […] Ester >5 3.3 ± 0.8 […] ICT9028 51 pyrimidine 2 NHSO2Ph H Acid >100 - ICT9031 52 pyrimidineT 1 NHSO2Mes H Acid >100 - ICT9090 53 pyrimidineT 2 NHSO2Mes H Acid >50 - ICT9029 54 pyrimidineT 2 NHSO2Ph H Acid >100 - ICT9063 55 naphthyridine 1 NHSO2Mes H Acid 61.7 ± 2.8 - […] Acid 45.5 ± 7.9 >100 […] 42.5 ± 1.8 >50 RGDS >50 - T trans configuration of cyclobutane sidechains.

Data set [2] concerns M14 cells. Put plainly: cells. It is filed as cell-based, human. To be noted: 24 h. On the procedure:
M14 cells (4 × 10^5/mL in RPMI 1640 medium) were seeded in six-well plates and incubated at 37 °C in a 5% CO2 humidified atmosphere for 48 h. The resulting confluent monolayer was scratched with a sterile P200 pipette tip to create a gap (approximately 2 cm in length and 650 μm in width) in the centre of the well. The medium was removed, and the cells washed with Hank’s balanced salt solution (HBSS) (1 mL) and replaced with a medium containing the test antagonist. After 24 h, the cells were washed twice with HBSS and fixed with ice-pre-cooled methanol for thirty minutes at −20 °C. Following hydration with two washes in PBS, the monolayers were counterstained with Harris’s haematoxylin solution for two minutes, then washed in tap water for one minute and left to dry at room temperature. The plates were observed using an inverted microscope, and digital images captured.
The anti-αvβ3 activity of selected compounds was confirmed in a wound-healing assay (Figure 3). A number of cell lines were initially investigated for their suitability in this assay. The Sk-Mel-2 cell line which adhered well to fibronectin in the adhesion assay migrated very slowly; therefore, M14 melanoma cells which combined high levels of αvβ3 with rapid migration and low levels of proliferation over the assay period (Supplementary Figure S4) were selected.

The nature of data set [3]: Cytotoxicity by MTT assay, 96 h, M14. It is filed as cell-based, human. The note with it: human. The procedure:
as §1
A general note: Formazan colour is commonly taken as a measure of viable cells.

For data set [4], the system named is Sk-Mel-2. Put plainly: in vitro. It is filed as cell-based, human. The procedure: as §1
The target of data set [5] is T1, αvβ3 (Homo sapiens, UniProt P05106+P06756).
T1 construct: endogenous in cells; host or cells: SK-Mel-2 melanoma cells
Put plainly: Sk-Mel-2 cell adhesion to immobilised fibronectin (cell-binding assay, MTT readout). It is filed as cell-based. To be noted: Sk-Mel-2 adhesion to Fn, mean ± SD. The procedure:
First, 96-well plates (Corning, VWR) were coated overnight at 4 °C with 0.5 μg/well fibronectin (Sigma). SK-Mel-2 cells were trypsinised, washed and resuspended in RPMI medium only at 10^5 cells/mL. Cells (100 µL/well) were treated with compound (DMSO final concentration 0.1%) at the indicated concentration for 4 hrs on a rotary shaker. Plates were washed (3 × PBS) and blocked with PBS/5% BSA for 2 hrs at 37 °C prior to adding the cells. Cells were incubated on the plates at 37 °C in a humidified chamber with 5% CO2 for 1 hr. The plates were washed 3× with PBS and a 200 µL/well RPMI medium containing 10% FCS added. The plates were incubated overnight at 37 °C as above. Finally, 0.5 mg/mL of 3-(4,5-dimethythiazol-2-yl)-2,5-diphenyl tetrazolium bromide (MTT) was added to each well and the plates incubated for a further 4 h. The medium was removed, and the insoluble formazan dissolved in 150 µL of DMSO. Absorbance was measured at 540 nm using a Thermo Multiskan EX (Thermofisher, UK)and Ascent Software (v2.6). Total binding was determined based on controls lacking any compounds (100% binding) in fibronectin-coated wells and uncoated wells blocked with BSA (0% binding) and corrected for background (no cells, fibronectin-coated).
As an initial test of anti-β3 activity, the ability of compounds to inhibit the adhesion of melanoma cells expressing high levels of αvβ3 and low levels of other RGD-binding integrins such as αvβ5 and α5β1 to immobilised fibronectin was evaluated.
Cells were seeded onto precoated plates in the presence or absence of putative antagonists and the number of adherent cells quantified colorimetrically.

Data set [6] concerns platelet aggregation. Put plainly: ADP-induced platelet aggregation in hirudin-treated whole blood (ex vivo). It is filed as cell-based, human. To be noted: ADP 6.4 μM, 100 μM. The procedure:
2.7. Platelet Aggregation Assay
Platelet aggregation was measured in hirudin-anticoagulated whole blood from a healthy donor with ADP as agonist (end concentration 6.4 μM) using a Multiplate® impedance aggregometer (Dynabyte Informationssysteme GmbH, Munich, Germany). At 37 °C, cells were charged with 300 μL of saline, 300 μL of blood, 1 μL of compound (0.1% DMSO) and incubated for 3 min. The agonist was added and the increase in electrical impedance measured from 2 electrode pairs/cell for 6 min, transformed into arbitrary units (AU), and the area under the curve was calculated.

Data set [7] has as its system M14. Put plainly: Cytotoxicity by MTT assay, 96 h, M14. It is filed as cell-based, human. To be noted: MTT, 96 hours. The procedure: as §1
Data set [8] has as its target T2, αIIbβ3 (Homo sapiens, UniProt P05106+P08514).
T2 construct: purchased Sigma
Put plainly: αIIbβ3/fibrinogen purified protein binding ELISA. The note with it: mean ± SD; for IC50: read-out: IC50 (αIIbβ3/Fg). On the procedure: ELISA assays were performed as previously described with minor modifications. Briefly, serial dilutions of compounds were prepared in dimethyl sulfoxide (DMSO). C8 Maxi Immuno modules (Fisher Scientific) were incubated overnight at 4 °C with 0.5 μg/well of fibrinogen (Sigma) in sterile phosphate buffered saline (PBS, 0.2 g/L KCl, 8.0 g/L NaCl, 0.2 KH2PO4, 1.15 g/L Na2HPO4, pH 7.4). All subsequent wash steps were performed using 25 mM Tris, pH 7.6, 150 mM NaCl, 1 mM MnCl2, 1 mg/mL BSA, and binding/inhibition was carried out in 25 mM Tris, pH 7.6, 150 mM NaCl, 1 mM MnCl2, 1 mM MgCl2, 1 mM CaCl2, 1 mg/mL BSA.
Wells were washed and blocked with a blocking solution (PBS, 0.1% Tween 20, 3% BSA) for 1 h at 37 °C. Compounds were added to the wells at indicated concentrations (final 0.5% DMSO) in the presence of 0.5 µg/well αIIbβ3 (Sigma) and incubated at room temp for 1 h. After 3 washes, primary anti-αIIb (1:200 dilution, Santa Cruz Biotech, Heidelberg, Germany) and antigoat–HRP (1:500 dilution, Dako, Agilent, Santa Clara, CA, USA) were added at room temp for 1 h. The wells were washed and incubated with 0.1 mg/mL tetra-methylbenzidine (Sigma) for 25 min and the reaction was stopped with 1N H2SO4 (100 μL/well). The absorbance was measured at 450 nm using a Multiscan Spectrum reader (Thermo Scientific, Thermofisher, UK) and SkanIT RE (v2.4.4.5) software. Results were plotted as percent binding vs. log concentration and IC50 values determined.
On the technique in general: ELISA stands for enzyme-linked immunosorbent assay.

Read-outs that look alike come from different tables or passages of the source.

T2 sequence (P08514 32-887 limits assumed): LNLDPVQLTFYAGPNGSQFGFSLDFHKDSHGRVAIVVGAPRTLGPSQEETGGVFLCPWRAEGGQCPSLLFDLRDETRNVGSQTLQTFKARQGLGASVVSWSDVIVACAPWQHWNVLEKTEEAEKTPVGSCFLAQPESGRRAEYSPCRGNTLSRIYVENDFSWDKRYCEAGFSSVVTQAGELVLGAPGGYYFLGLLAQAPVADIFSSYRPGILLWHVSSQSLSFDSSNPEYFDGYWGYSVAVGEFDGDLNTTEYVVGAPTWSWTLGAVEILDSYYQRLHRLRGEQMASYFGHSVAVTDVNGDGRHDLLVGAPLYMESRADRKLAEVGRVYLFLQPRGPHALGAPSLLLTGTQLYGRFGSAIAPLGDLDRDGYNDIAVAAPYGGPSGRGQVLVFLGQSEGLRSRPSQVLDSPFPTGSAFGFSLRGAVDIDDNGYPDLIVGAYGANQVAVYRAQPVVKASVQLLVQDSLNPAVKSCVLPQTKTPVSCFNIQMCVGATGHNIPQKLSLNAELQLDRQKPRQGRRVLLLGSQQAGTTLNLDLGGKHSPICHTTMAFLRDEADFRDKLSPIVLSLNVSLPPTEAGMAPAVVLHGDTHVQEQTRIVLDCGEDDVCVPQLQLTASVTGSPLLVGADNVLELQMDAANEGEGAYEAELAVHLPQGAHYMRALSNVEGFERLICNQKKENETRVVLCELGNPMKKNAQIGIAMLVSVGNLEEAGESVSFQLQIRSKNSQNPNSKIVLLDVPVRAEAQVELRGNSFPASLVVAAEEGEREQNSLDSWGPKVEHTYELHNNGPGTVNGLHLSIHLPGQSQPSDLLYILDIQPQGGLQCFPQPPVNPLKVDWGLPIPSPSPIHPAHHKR
T2 sequence (P08514 891-1039 partner limits assumed): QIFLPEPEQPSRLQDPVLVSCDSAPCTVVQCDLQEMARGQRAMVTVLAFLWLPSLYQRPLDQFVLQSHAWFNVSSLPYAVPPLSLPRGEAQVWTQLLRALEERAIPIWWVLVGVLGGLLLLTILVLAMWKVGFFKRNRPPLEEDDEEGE
T2 sequence (P05106 27-788): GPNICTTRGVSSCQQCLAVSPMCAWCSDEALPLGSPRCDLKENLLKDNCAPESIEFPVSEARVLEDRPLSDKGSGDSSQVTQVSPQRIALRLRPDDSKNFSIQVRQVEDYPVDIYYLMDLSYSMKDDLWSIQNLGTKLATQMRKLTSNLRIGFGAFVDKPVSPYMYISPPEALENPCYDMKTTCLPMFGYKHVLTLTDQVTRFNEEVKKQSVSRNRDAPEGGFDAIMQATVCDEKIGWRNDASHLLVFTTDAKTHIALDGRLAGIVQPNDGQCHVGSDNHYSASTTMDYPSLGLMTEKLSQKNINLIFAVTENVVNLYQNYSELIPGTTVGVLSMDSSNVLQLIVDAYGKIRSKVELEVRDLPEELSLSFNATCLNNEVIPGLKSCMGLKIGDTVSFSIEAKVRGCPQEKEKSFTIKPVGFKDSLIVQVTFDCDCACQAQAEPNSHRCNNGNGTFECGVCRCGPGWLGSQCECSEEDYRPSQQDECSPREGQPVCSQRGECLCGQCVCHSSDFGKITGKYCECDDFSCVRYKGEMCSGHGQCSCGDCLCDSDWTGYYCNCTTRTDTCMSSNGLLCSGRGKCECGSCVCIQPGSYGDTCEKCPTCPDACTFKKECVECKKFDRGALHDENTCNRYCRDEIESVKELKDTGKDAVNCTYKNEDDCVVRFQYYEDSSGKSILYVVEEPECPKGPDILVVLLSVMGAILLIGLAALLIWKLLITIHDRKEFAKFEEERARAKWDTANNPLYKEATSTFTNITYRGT
T1 sequence (P06756 31-889 limits assumed): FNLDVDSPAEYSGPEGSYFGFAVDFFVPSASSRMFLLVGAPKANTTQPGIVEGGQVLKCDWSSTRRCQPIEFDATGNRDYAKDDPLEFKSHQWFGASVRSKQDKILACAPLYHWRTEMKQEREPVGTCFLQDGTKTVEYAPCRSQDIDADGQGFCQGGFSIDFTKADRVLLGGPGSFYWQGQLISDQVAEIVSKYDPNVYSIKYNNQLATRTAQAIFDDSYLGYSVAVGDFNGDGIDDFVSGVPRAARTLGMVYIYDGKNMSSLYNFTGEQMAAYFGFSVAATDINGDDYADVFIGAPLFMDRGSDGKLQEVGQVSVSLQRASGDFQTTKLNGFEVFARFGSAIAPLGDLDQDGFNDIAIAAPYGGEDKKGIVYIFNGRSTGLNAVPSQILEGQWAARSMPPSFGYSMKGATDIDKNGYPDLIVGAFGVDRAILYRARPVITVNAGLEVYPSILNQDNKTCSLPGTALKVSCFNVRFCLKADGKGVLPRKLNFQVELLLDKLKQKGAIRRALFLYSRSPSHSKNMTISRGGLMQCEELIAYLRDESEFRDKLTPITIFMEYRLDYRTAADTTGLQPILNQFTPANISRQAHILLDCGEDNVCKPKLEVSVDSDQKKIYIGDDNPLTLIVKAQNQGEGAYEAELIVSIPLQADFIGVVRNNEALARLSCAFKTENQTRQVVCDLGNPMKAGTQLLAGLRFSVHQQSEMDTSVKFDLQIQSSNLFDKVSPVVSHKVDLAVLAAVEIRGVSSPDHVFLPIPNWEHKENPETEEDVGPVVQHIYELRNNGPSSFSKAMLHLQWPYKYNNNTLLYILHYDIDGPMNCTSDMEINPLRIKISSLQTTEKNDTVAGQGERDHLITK
T1 sequence (P06756 891-1048 partner limits assumed): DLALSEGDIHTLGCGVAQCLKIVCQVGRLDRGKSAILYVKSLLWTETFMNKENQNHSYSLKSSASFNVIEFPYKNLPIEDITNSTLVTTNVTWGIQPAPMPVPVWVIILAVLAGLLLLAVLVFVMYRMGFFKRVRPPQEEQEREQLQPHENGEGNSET
T1 sequence (P05106 27-788): as the sequence (P05106 27-788) above

For `COC(=O)CCNC(=O)C1CC(CCCNc2ncccn2)C1` (centres unmarked) [ICT9003 22, 3-({3-[3-(Pyrimidin-2-ylamino)-propyl]-cyclobutanecarbonyl}-amino)-propionic acid methyl ester], the melting point (commonly the temperature, or range, at which the solid turns liquid) lay in the range of 94 to 95 °C. This compound also yielded an IC50 at 96 h in data set [1] above 100 µM. Moreover, the IC50 in data set [2] (Homo sapiens, M14 scratch wound, mean ± SD, read-out: Migration IC50) amounted to 4.8 ± 0.2 µM. The IC50 at 96 h in data set [3] (M14 cells, MTT, 96 hours, read-out: M14 IC50 (cytotoxicity)) was above 100 µM.

Turning to `COC(=O)[C@H](CNC(=O)[C@H]1C[C@H](CCc2ccc3c(n2)NCCC3)C1)NS(=O)(=O)c1c(C)cc(C)cc1C` [ICT9055 46, (S)-methyl 3-((1r,3r)-3-(2-(5,6,7,8-tetrahydro-1,8-naphthyridin-2-yl)ethyl)cyclobutanecarboxamido)-2-(2,4,6-trimethylphenylsulfonamido)propanoate], the IC50 in data set [4] is 9.6 ± 5.7 µM; in [5], 0.34 ± 0.33 µM; in [2] (M14 scratch wound, mean ± SD, read-out: Migration IC50) it was below 0.1 µM; in data set [7], above 100 µM; in data set [8] it was above 50 µM. The “Adhesion % Inhibition @ 5 μM” value in data set [5] (5 μM) is recorded as 98.4 ± 1.9%. Moreover, in data set [6], the “% Inhibition (Platelet Aggregation) @ 100 μM” value is 5.6%. The “% Inhibition (αIIbβ3/Fg) @ 50 μM” value in data set [8] stood at 0 ± 9.8%.

Regarding `Cc1cc(C)c(S(=O)(=O)N[C@@H](CNC(=O)C2CC(CCc3ccc4cccnc4n3)C2)C(=O)O)c(C)c1` (stereo partly drawn) [ICT9063 55, (S)-3-{(1r,3r)-[3-(2-[1, 8] Naphthyridin-2-yl-ethyl)-cyclobutanecarbonyl]-amino}-2-(2,4,6-trimethyl-benzenesulfonylamino)-propionic acid], the IC50 was 61.7 ± 2.8 µM in data set [4], above 5 µM in data set [5] and 4.1 ± 2.2 µM in data set [8]. In addition, in data set [5] (5 μM), the “Adhesion % Inhibition @ 5 μM” value is on record as 20.7 ± 11.9%. In addition, the “% Inhibition (Platelet Aggregation) @ 100 μM” value in [6] is recorded as 13.0%. Besides, in [8], the “% Inhibition (αIIbβ3/Fg) @ 50 μM” value worked out at 84.5 ± 8.6%.

`Cc1cc(C)c(S(=O)(=O)N[C@@H](CNC(=O)[C@H]2C[C@@H](CCCNc3ncccn3)C2)C(=O)O)c(C)c1` [ICT9090 53, (S)-3-((1s,3s)-{3-[3-(Pyrimidin-2-ylamino)-propyl]-cyclobutanecarbonyl}-amino)-2-(2,4,6-trimethyl-benzenesulfonylamino)-propionic acid]: the figures for the IC50 in data set [4], in [5] and in data set [8] were above 50 µM, 11 ± 11.6 µM and 0.39 ± 0.19 µM, respectively. Further, in data set [5] (50 μM), the “Adhesion % Inhibition @ 50 μM” value is on record as 68.9 ± 10.9%. Besides, the “% Inhibition (Platelet Aggregation) @ 100 μM” value in data set [6] was determined as 21.2 ± 7.8%.

The compound `NC(N)=NCCC[C@H](N)C(=O)NCC(=O)N[C@@H](CC(=O)O)C(=O)N[C@@H](CO)C(=O)O` [RGDS, reference compound] yielded an IC50 at 96 h in data set [1] above 50 µM. In data set [5] (5 μM), 5 µM produced 68.5 ± 29.1% inhibition. Also, the inhibition (usually the relative decrease from the control value, in per cent) at 50 µM in [5] (50 μM) worked out at 45.8 ± 16.6%.

In the case of `CC(C)[C@@H]1NC(=O)[C@@H](Cc2ccccc2)NC(=O)[C@H](CC(=O)O)NC(=O)CNC(=O)[C@H](CCCNC(=N)N)NC1=O` [cRGDfV, reference compound], the figures for the IC50 at 96 h in [1] and in [3] were 42.5 ± 1.8 µM and above 50 µM, respectively. Further, the IC50 in data set [2] came out at 4 ± 0.07 µM.

The values are drawn from publication PMC10452181, “Synthesis and Biological Evaluation of Cyclobutane-Based β3 Integrin Antagonists: A Novel Approach to Targeting Integrins for Cancer Therapy” (Cancers, 2023).
